The solubility is how much of the substance goes into solution per volume.

This passage reports solubility results from patent publication US20110301235A1, “ORGANOSELENIUM COMPOUNDS AND USES THEREOF” (Alquest Therapeutics, Inc., priority 2009, published 2011).

Converted amounts (≈) assume the structure as drawn.

A short description of the first data set: Solubility measurements. It is filed as physicochemical. The conditions noted are these: 100 mM NaCl buffer, aqueous buffer, kinetic from dmso stock; 25 mM Hepes pH 7.4, 100 mM NaCl; 30 minutes at room temperature; centrifuged; absorbance at 260 nm; read-out: solubility (solubility limit). As to the method: A 2-fold serial dilution of compounds was prepared in 25 mM Hepes pH 7.4, 100 mM NaCl. After 30 minutes at room temperature, precipitates were removed by centrifugation at 18,000×G for 15 min. The supernatant was transferred to a microtiter plate and absorbance at 260 nm was determined. The concentration at which there was no longer a linear increase in absorbance was determined as the solubility limit. The compounds in the examples generally had better solubilities than the reference compound 2-phenyl-1,2-benzisoselenazol-3(2H)-one (66-100 μM), with the compounds described in Examples 1-9 having solubilities of 300, 300, 100, 66-100, 300, 300-600, 1000, 1000, and 1000 μM.
As for `O=c1c2ccccc2[se]n1-c1ccccc1` [2-phenyl-1,2-benzisoselenazol-3(2H)-one, reference compound], the solubility at 30 min was in the range of 66 to 100 µM (≈ 18.1 to 27.4 µg/mL).

The data set is the same for the next values; noted with them: aqueous buffer, kinetic from dmso stock; 25 mM Hepes pH 7.4, 100 mM NaCl; 30 minutes at room temperature; centrifuged; absorbance at 260 nm; read-out: solubility (solubility limit).
As to `CCOC(=O)[C@@H](N)CS[Se]c1ccccc1C(=O)Nc1ccccc1.Cl` [Example 3], the solubility at 30 min came to 100 µM.
On the same count and under the same terms, the value for `Cl.NCCS[Se]c1ccccc1C(=O)Nc1ccccc1` [Example 5] was 300 µM.
`CCOC(=O)CNC(=O)[C@H](CS[Se]c1ccccc1C(=O)Nc1ccccc1)NC(=O)CC[C@H](N)C(=O)O.Cl` [Example 8]: the solubility at 30 min was 1000 µM.
On the same count and under the same terms, the value for `Cl.N[C@@H](CCC(=O)N[C@@H](CS[Se]c1ccccc1C(=O)Nc1ccccc1)C(=O)NCC(=O)O)C(=O)O` [Example 9] was 1000 µM.

The same data set, now with this note: pH 7.4, aqueous buffer, kinetic from dmso stock.
In turn, `CC(C)(CO)[C@@H](O)C(=O)NCCC(=O)NCCS[Se]c1ccccc1C(=O)Nc1ccccc1` [Example 1] had a solubility at 30 min of 300 µM (≈ 166 µg/mL).
For the molecule `CC(=O)N[C@@H](CS[Se]c1ccccc1C(=O)Nc1ccccc1)C(=O)O` [Example 2], the solubility at 30 min came to 300 µM (≈ 131 µg/mL).
On the same count and under the same terms, the value for `CCOC(=O)[C@H](CS[Se]c1ccccc1C(=O)Nc1ccccc1)NC(C)=O` [Example 4] was 66 to 100 µM (≈ 30.7 to 46.5 µg/mL); that for `O=C(Nc1ccccc1)c1ccccc1[Se]SCCO` [Example 6] was 300 to 600 µM (≈ 106 to 211 µg/mL); that for `O=C(Nc1ccccc1)c1ccccc1[Se]SCCS(=O)(=O)O` [Example 7] was 1000 µM (≈ 416 µg/mL).
